Experimental data from paper PMC12211128, “Safety, tolerability, pharmacokinetic and pharmacodynamic effects of the muscarinic M1 positive allosteric modulator VU0467319 for Alzheimer’s disease: a single ascending-dose study in healthy participants” (Alzheimer's Research & Therapy, 2025).

Test system: healthy participants
Assay: N-back sequential letter task
Type: in vivo, human
Conditions: for N-Back 0-back Sensitivity (d’) / N-Back 1-back Sensitivity / N-Back 2-back Sensitivity / N-Back 3-back Sensitivity: mean (SD)
Text: A visually presented N-back sequential letter task was used to assess working memory performance, wherein participants saw a string of consonants (except L, W, and Y), presented in upper case letters, one every 3 s. Four conditions were presented: 0-back, 1-back, 2-back, and 3-back. The main outcome variable of the n-back task was sensitivity (d’) for each of the four conditions, calculated as: d’ = Z (Hit)– Z (False alarms).
Cognitive data: In this exploratory analysis, each outcome variable of the cognitive data was examined in a mixed model analysis of variance with one between-subjects factor of VU319 dose (0, 60, 120, 240, 400, 600 mg) and a within-subjects factor of testing session (pre-dose vs. post-dost administration). Post-hoc analysis compared each of the VU319 dose cohorts against the placebo group. Because the participants were healthy adults with normal cognitive function, we considered effects between no reductions in function to small improvement (d = 0.0–0.20) to be a positive result. For the food effect study, only the participants who received VU319 were examined due to the disproportionately small placebo group (n = 2). A within-subjects ANOVA including food condition (fasted/fed) and testing session (pre-dose vs. post-dose administration) was performed on each outcome variable.
A visually presented N-back sequential letter task (Jonides et al., 1997; Saykin et al., 2004) was used to assess working memory performance, wherein participants saw a string of consonants (except L, W, and Y), presented in upper case letters, one every 3 s. Four conditions were presented: 0-back, 1-back, 2-back, and 3-back. The 0-back control condition required participants to decide if the current letter matched a single target letter that was specified before the epoch began. In each of the 1-back, 2-back, and 3-back conditions, the task is to decide whether the letter currently presented matches the letter that has been presented 1, 2, or 3 back in the sequence. The 0-, 1-, 2-, and 3-back conditions were performed in two blocks of 27 trials each for a total of 216 trials. The blocks were presented in a counterbalanced order such that the same condition was not repeated two times in a row. The main outcome variable of the n-back task was sensitivity (d’) for each of the four conditions, calculated as: d’ = Z (Hit) – Z (False alarms).

[1] = Food effect study 120 mg, Fasting, Post-Drug
[2] = Food effect study 120 mg, Fasting, Pre-Drug
[3] = Food effect study 120 mg, Fed, Post-Drug
[4] = Food effect study 120 mg, Fed, Pre-Drug

Cn1cc2c(-c3cc(F)c(CN4Cc5ncccc5C4=O)c(F)c3)cccc2n1 [VU319]
N-back 2-back d', vs placebo, effect size d (400 mg, p = 0.12): 0.87
N-back 1-back d', vs placebo, effect size d (600 mg, p = 0.12): 0.86
N-Back 0-back Sensitivity (d’) [1]: 5.15 (1.1)
N-Back 1-back Sensitivity [1]: 3.38 (2.09)
N-Back 2-back Sensitivity [1]: 2.3 (1.64)
N-Back 3-back Sensitivity [1]: 1.96 (1.4)
N-Back 0-back Sensitivity (d’) [2]: 4.64 (1.22)
N-Back 1-back Sensitivity [2]: 5.01 (0.93)
N-Back 2-back Sensitivity [2]: 3.79 (1.18)
N-Back 3-back Sensitivity [2]: 2.55 (1.42)
N-Back 0-back Sensitivity (d’) [3]: 4.62 (1.32)
N-Back 1-back Sensitivity [3]: 4.13 (1.6)
N-Back 2-back Sensitivity [3]: 2.89 (1.42)
N-Back 3-back Sensitivity [3]: 2.53 (0.97)
N-Back 0-back Sensitivity (d’) [4]: 4.67 (1.4)
N-Back 1-back Sensitivity [4]: 5.42 (0.99)
N-Back 2-back Sensitivity [4]: 3.75 (1.21)
N-Back 3-back Sensitivity [4]: 2.29 (0.65)
N-Back 0-back Sensitivity (d’) (SAD study, 60 mg, Post-Drug): 5.37 (1.26)
N-Back 1-back Sensitivity (SAD study, 60 mg, Post-Drug): 4.99 (1.48)
N-Back 2-back Sensitivity (SAD study, 60 mg, Post-Drug): 3.12 (1.22)
N-Back 3-back Sensitivity (SAD study, 60 mg, Post-Drug): 2.11 (0.36)
N-Back 0-back Sensitivity (d’) (SAD study, 60 mg, Pre-Drug): 5.64 (0.84)
N-Back 1-back Sensitivity (SAD study, 60 mg, Pre-Drug): 5.01 (1.17)
N-Back 2-back Sensitivity (SAD study, 60 mg, Pre-Drug): 3.35 (0.91)
N-Back 3-back Sensitivity (SAD study, 60 mg, Pre-Drug): 2.65 (0.49)
N-Back 0-back Sensitivity (d’) (SAD study, 120 mg, Post-Drug): 5.37 (1.26)
N-Back 1-back Sensitivity (SAD study, 120 mg, Post-Drug): 4.46 (1.35)
N-Back 2-back Sensitivity (SAD study, 120 mg, Post-Drug): 3.25 (2.19)
N-Back 3-back Sensitivity (SAD study, 120 mg, Post-Drug): 1.75 (1.14)
N-Back 0-back Sensitivity (d’) (SAD study, 120 mg, Pre-Drug): 5.64 (0.84)
N-Back 1-back Sensitivity (SAD study, 120 mg, Pre-Drug): 4.91 (1.08)
N-Back 2-back Sensitivity (SAD study, 120 mg, Pre-Drug): 3.28 (1.98)
N-Back 3-back Sensitivity (SAD study, 120 mg, Pre-Drug): 2.34 (1.12)
N-Back 0-back Sensitivity (d’) (SAD study, 240 mg, Post-Drug): 6.18 (0)
N-Back 1-back Sensitivity (SAD study, 240 mg, Post-Drug): 4.32 (2.3)
N-Back 2-back Sensitivity (SAD study, 240 mg, Post-Drug): 3.42 (2.29)
N-Back 3-back Sensitivity (SAD study, 240 mg, Post-Drug): 1.66 (0.83)
N-Back 0-back Sensitivity (d’) (SAD study, 240 mg, Pre-Drug): 6.18 (0)
N-Back 1-back Sensitivity (SAD study, 240 mg, Pre-Drug): 4.72 (2.02)
N-Back 2-back Sensitivity (SAD study, 240 mg, Pre-Drug): 3.77 (1.84)
N-Back 3-back Sensitivity (SAD study, 240 mg, Pre-Drug): 2.37 (0.81)
N-Back 0-back Sensitivity (d’) (SAD study, 400 mg, Post-Drug): 6.18 (0)
N-Back 1-back Sensitivity (SAD study, 400 mg, Post-Drug): 5.37 (1.26)
N-Back 2-back Sensitivity (SAD study, 400 mg, Post-Drug): 3.6 (1.84)
N-Back 3-back Sensitivity (SAD study, 400 mg, Post-Drug): 2.01 (0.74)
N-Back 0-back Sensitivity (d’) (SAD study, 400 mg, Pre-Drug): 6.18 (0)
N-Back 1-back Sensitivity (SAD study, 400 mg, Pre-Drug): 5.64 (0.84)
N-Back 2-back Sensitivity (SAD study, 400 mg, Pre-Drug): 3.54 (1.69)
N-Back 3-back Sensitivity (SAD study, 400 mg, Pre-Drug): 2.34 (0.74)
N-Back 0-back Sensitivity (d’) (SAD study, 600 mg, Post-Drug): 5.27 (1.43)
N-Back 1-back Sensitivity (SAD study, 600 mg, Post-Drug): 5.09 (1.06)
N-Back 2-back Sensitivity (SAD study, 600 mg, Post-Drug): 4.43 (1.72)
N-Back 3-back Sensitivity (SAD study, 600 mg, Post-Drug): 2.94 (1.3)
N-Back 0-back Sensitivity (d’) (SAD study, 600 mg, Pre-Drug): 5.57 (0.95)
N-Back 1-back Sensitivity (SAD study, 600 mg, Pre-Drug): 5.07 (0.59)
N-Back 2-back Sensitivity (SAD study, 600 mg, Pre-Drug): 4.31 (1.69)
N-Back 3-back Sensitivity (SAD study, 600 mg, Pre-Drug): 3.3 (1.02)
N-back d' score, effect of dose (SAD study, four conditions, all p > 0.2): did not show a significant effect of dose, nor dose by time
N-back 2-back sensitivity, effect of time of testing, effect size d (food effect study, 120 mg, p = 0.004, not related to food condition): 2.55
N-back 1-back sensitivity, effect of time of testing, effect size d (food effect study, 120 mg, p = 0.015, not related to food condition): 2.0
